Assay results published in the NIST ThermoML archive (doi:10.1021/je030226s).
Numbers after ± are expanded uncertainties.

What was measured:
[1] = 101.32 kPa, Liquid
[2] = refractive index (Na D-line) (dimensionless); details: 101.33 kPa, Liquid

Row | Structure (SMILES) | mass density ([1]; 288.15 K) [kg/m3] | viscosity ([1]; 288.15 K) [mPa·s] | mass density ([1]; 298.15 K) [kg/m3] | viscosity ([1]; 298.15 K) [mPa·s] | mass density ([1]; 308.15 K) [kg/m3] | viscosity ([1]; 308.15 K) [mPa·s] | refractive index ([2]; 288.15 K) | refractive index ([2]; 298.15 K) | refractive index ([2]; 308.15 K)
1 | CCCCO [butan-1-ol] | 813.5 ± 0.9 | 3.394 ± 0.039 | 805.9 ± 0.9 | 2.598 ± 0.03 | 798.2 ± 0.9 | 2.019 ± 0.024 | 1.401 ± 0.0006 | 1.3972 ± 0.0006 | 1.3932 ± 0.0006
2 | CCCCCl [1-chlorobutane] | 892.2 ± 0.6 | 0.472 ± 0.009 | 881 ± 0.7 | 0.423 ± 0.008 | 869.7 ± 0.7 | 0.382 ± 0.008 | 1.4045 ± 0.0006 | 1.3993 ± 0.0006 | 1.3941 ± 0.0006
3 | CCCO [propan-1-ol] | 807.6 ± 0.9 | 2.504 ± 0.029 | 799.6 ± 0.9 | 1.958 ± 0.023 | 791.5 ± 0.9 | 1.548 ± 0.019 | 1.3869 ± 0.0006 | 1.3829 ± 0.0006 | 1.3789 ± 0.0006
4 | CCO [ethanol] | 793.8 ± 0.9 | 1.317 ± 0.016 | 785.2 ± 0.9 | 1.085 ± 0.014 | 776.6 ± 1 | 0.902 ± 0.012 | 1.363 ± 0.0006 | 1.3591 ± 0.0006 | 1.355 ± 0.0006
5 | CO [methanol] | 796.1 ± 0.9 | 0.627 ± 0.01 | 786.6 ± 0.9 | 0.543 ± 0.009 | 777.2 ± 1 | 0.473 ± 0.009 | 1.3303 ± 0.0006 | 1.3275 ± 0.0006 | 1.3254 ± 0.0006
